The test concerns the target T1, vanilloid receptor 1 (VR1/TRPV1 receptor) (Homo sapiens, UniProt Q8NER1).
T1 construct: expressed in transfected cells; host or cells: CHO K1 cells (ECACC), stably transfected
In words: VR1/TRPV1 receptor affinity, capsaicin stimulus (human). It is filed as cell-based, human being. Also on record: key to (f) Ki (human being) [nM] Cap: result in words: AG=agonist; pAG=partial agonist; NE=no effect. Particulars: for (f) Ki (human being) [nM] Cap: result in words: Tables 8-12; for Ki: Tables 8-12, read-out: (f) Ki (human being) [nM] Cap.

T1 sequence (Q8NER1 whole entry): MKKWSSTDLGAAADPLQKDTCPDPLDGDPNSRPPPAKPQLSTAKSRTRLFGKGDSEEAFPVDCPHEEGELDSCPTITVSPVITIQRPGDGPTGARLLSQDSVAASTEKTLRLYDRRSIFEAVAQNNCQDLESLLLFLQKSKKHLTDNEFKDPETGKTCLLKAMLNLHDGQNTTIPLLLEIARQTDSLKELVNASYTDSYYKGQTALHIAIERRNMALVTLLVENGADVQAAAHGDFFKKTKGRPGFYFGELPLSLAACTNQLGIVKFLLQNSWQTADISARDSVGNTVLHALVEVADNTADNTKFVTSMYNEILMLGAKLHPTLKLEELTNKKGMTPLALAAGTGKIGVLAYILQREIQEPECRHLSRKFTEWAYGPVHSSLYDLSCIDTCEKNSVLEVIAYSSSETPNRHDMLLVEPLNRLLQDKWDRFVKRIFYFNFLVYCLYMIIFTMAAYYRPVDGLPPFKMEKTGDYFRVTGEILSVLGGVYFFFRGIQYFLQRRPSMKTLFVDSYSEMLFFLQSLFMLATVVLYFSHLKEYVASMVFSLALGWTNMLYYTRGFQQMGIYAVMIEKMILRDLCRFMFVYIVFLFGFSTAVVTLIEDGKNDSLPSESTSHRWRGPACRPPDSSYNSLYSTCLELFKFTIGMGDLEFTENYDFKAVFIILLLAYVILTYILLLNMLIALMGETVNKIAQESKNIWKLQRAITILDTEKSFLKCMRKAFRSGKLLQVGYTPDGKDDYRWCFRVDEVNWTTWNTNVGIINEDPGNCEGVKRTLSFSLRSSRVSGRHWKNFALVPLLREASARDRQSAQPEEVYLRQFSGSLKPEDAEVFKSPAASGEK

Regarding `CC(O)c1ccc(C(C)C(=O)NCc2cc(C(C)(C)C)nn2-c2cccc(Cl)c2)cc1F` (stereo not drawn) [Example A98, N-[[5-tert-Butyl-2-(3-chlorophenyl)-2H-pyrazol-3-yl]-methyl]-2-[3-fluoro-4-(1-hydroxy-ethyl)-phenyl]-propionamide], the “(f) Ki (human being) [nM] Cap: result in words” value (“(f) Ki (human being) [nM] Cap” for short) is “AG”. On to “N-(4-Chlorophenyl)-4-[1-[[2-(3-chlorophenyl)-5-(trifluoromethyl)-2H-pyrazol-3-yl]-methyl-carbamoyl]-ethyl]-benzamide [Example E33]”, for which the inhibitory constant (Ki) (commonly the equilibrium dissociation constant of an inhibitor or competing ligand from its target) came out at 6 nM. In the case of `CCS(=O)(=O)NCc1ccc(NC(=O)NCc2cc(C(F)(F)F)nn2-c2cccc(Cl)c2)cc1` [Example B84, 1-[[2-(3-Chlorophenyl)-5-(trifluoromethyl)-2H-pyrazol-3-yl]-methyl]-3-[4-[[(ethylsulfonyl)amino]-methyl]-phenyl]-urea], the Ki was 53 nM. In the case of `CC(C(=O)NCc1cc(C(C)(C)C)nn1-c1ccc(F)c(Cl)c1)c1ccc(CNS(N)(=O)=O)c(F)c1` (stereo not drawn) [Example B96, N-[[5-tert-Butyl-2-(3-chloro-4-fluoro-phenyl)-2H-pyrazol-3-yl]-methyl]-2-[3-fluoro-4-[(sulfamoylamino)-methyl]-phenyl]-propionamide], the Ki came out at 0.9 nM.

For the compound `CN(C(=O)Nc1ccc(C(=O)NC2CCOCC2)c(F)c1)c1cc(C(F)(F)F)nn1-c1cccc(Cl)c1` [Example E22, 4-[[[2-(3-Chlorophenyl)-5-(trifluoromethyl)-2H-pyrazol-3-yl]-methyl-carbamoyl]amino]-2-fluoro-N-tetrahydro-pyran-4-yl-benzamide], where the note is “@ 5 μM, Tables 8-12, read-out: (f) Ki (human being) [nM] Cap: inhibition (as a percentage)”, the inhibition (usually the change of the read-out against control, counted positive when it falls) at 5 µM was 49%. As for `CS(=O)(=O)CCc1ccc(NC(=O)NCc2cc(C(F)(F)F)nn2-c2ccc(F)c(Cl)c2)cc1F` [Example D28, 1-[[2-(3-Chloro-4-fluoro-phenyl)-5-(trifluoromethyl)-2H-pyrazol-3-yl]-methyl]-3-[3-fluoro-4-(2-methylsulfonyl-ethyl)-phenyl]-urea], the inhibition constant Ki amounted to 32 nM. `CC(C(=O)NCc1cc(C(C)(C)C)nn1-c1cccc(Cl)c1)c1ccc(CN(C)C)c(F)c1` (stereo not drawn) [Example B64, N-[[5-tert-Butyl-2-(3-chlorophenyl)-2H-pyrazol-3-yl]-methyl]-2-[4-(dimethylaminomethyl)-3-fluoro-phenyl]-propionamide]: the inhibitory constant (Ki) worked out at 45 nM. In the case of `COc1cccc(-n2nc(C(F)(F)F)cc2CNC(=O)C(C)c2ccc(CNS(C)(=O)=O)c(F)c2)c1` (stereo not drawn) [Example B15, 2-[3-Fluoro-4-(methanesulfonamido-methyl)-phenyl]-N-[[2-(3-methoxyphenyl)-5-(trifluoromethyl)-2H-pyrazol-3-yl]-methyl]-propionamide], the Ki came out at 6 nM.

As to `CC(C(=O)NCc1cc(C(C)(C)C)nn1-c1cccc(Cl)c1)c1ccc(CNS(N)(=O)=O)cc1` (stereo not drawn) [Example B103, N-[[5-tert-Butyl-2-(3-chlorophenyl)-2H-pyrazol-3-yl]-methyl]-2-[4-[(sulfamoylamino)-methyl]-phenyl]-propionamide], the Ki amounted to 0.7 nM.

For `CC(C(=O)NCc1cc(C(F)(F)F)nn1-c1cccc(Cl)c1)c1cc(F)c(CO)c(F)c1` (stereo not drawn) [Example A52, N-[[2-(3-Chlorophenyl)-5-(trifluoromethyl)-2H-pyrazol-3-yl]-methyl]-2-[3,5-difluoro-4-(hydroxymethyl)-phenyl]-propionamide], the inhibition constant (Ki) came out at 40 nM. Turning to `CC(C)(C)c1cc(CNC(=O)Nc2ccc(CCS(C)(=O)=O)c(F)c2)n(-c2cc(F)cc(F)c2)n1` [Example D31, 1-[[5-tert-Butyl-2-(3,5-difluoro-phenyl)-2H-pyrazol-3-yl]-methyl]-3-[3-fluoro-4-(2-methylsulfonyl-ethyl)-phenyl]-urea], the inhibitory constant (Ki) was determined as 15 nM. For `CC(C(=O)NCc1cc(C(C)(C)C)nn1-c1cccc(Cl)c1)c1ccc(CNS(C)(=O)=O)c(Cl)c1` (stereo not drawn) [Example B13, N-[[5-tert-Butyl-2-(3-chlorophenyl)-2H-pyrazol-3-yl]-methyl]-2-[3-chloro-4-(methanesulfonamido-methyl)-phenyl]-propionamide], the Ki was 1 nM. Same read-out and setting: the value for `CC(C(=O)NCc1cc(C(F)(F)F)nn1-c1cccc(Cl)c1)c1ccc(CNS(C)(=O)=O)c(Cl)c1` (stereo not drawn) [Example B22, 2-[3-Chloro-4-(methanesulfonamido-methyl)-phenyl]-N-[[2-(3-chlorophenyl)-5-(trifluoromethyl)-2H-pyrazol-3-yl]-methyl]-propionamide] was 3 nM; that for `CC(C(=O)NCc1cc(C(F)(F)F)nn1-c1cccc(Cl)c1)c1ccc(S(C)(=O)=O)c(Cl)c1` (stereo not drawn) [Example D5, 2-(3-Chloro-4-methylsulfonyl-phenyl)-N-[[2-(3-chlorophenyl)-5-(trifluoromethyl)-2H-pyrazol-3-yl]-methyl]-propionamide] was 7 nM; that for `CC(C(=O)NCc1cc(C(F)(F)F)nn1-c1ccc(F)c(Cl)c1)c1ccc(CNS(C)(=O)=O)c(F)c1` (stereo not drawn) [Example B2, N-[[2-(3-Chloro-4-fluoro-phenyl)-5-(trifluoromethyl)-2H-pyrazol-3-yl]-methyl]-2-[3-fluoro-4-(methanesulfonamido-methyl)-phenyl]-propionamide] was 2.4 nM. `CC(C)(C)c1cc(CNC(=O)Nc2ccc(CCO)c(F)c2)n(-c2cccc(Cl)c2)n1` [Example A140, 1-[[5-tert-Butyl-2-(3-chlorophenyl)-2H-pyrazol-3-yl]-methyl]-3-[3-fluoro-4-(2-hydroxy-ethyl)-phenyl]-urea]: the “(f) Ki (human being) [nM] Cap” value is recorded as “AG”. `CC(C)(C)c1cc(CNC(=O)Nc2ccc(CNS(N)(=O)=O)cc2)n(-c2cccc(F)c2)n1` [Example B56, 1-[[5-tert-Butyl-2-(3-fluorophenyl)-2H-pyrazol-3-yl]-methyl]-3-[4-[(sulfamoylamino)-methyl]-phenyl]-urea]: the Ki came to 56 nM.

As for `CC(C(=O)NCc1cc(C(C)(C)C)nn1-c1cccc(Cl)c1)c1ccc(CNS(C)(=O)=O)cc1` (stereo not drawn) [Example B6, N-[[5-tert-Butyl-2-(3-chlorophenyl)-2H-pyrazol-3-yl]-methyl]-2-[4-(methanesulfonamido-methyl)-phenyl]-propionamide], the inhibition constant Ki came to 7 nM.

Take `CC(C(=O)NCc1cc(C(C)(C)C)nn1-c1cccc(C(F)(F)F)c1)c1ccc(CNS(C)(=O)=O)c(F)c1` (stereo not drawn) [Example B43, N-[[5-tert-Butyl-2-[3-(trifluoromethyl)phenyl]-2H-pyrazol-3-yl]-methyl]-2-[3-fluoro-4-(methanesulfonamido-methyl)-phenyl]-propionamide]: the Ki turned out to be 1 nM. Take `CC(C(=O)NCc1cc(C(C)(C)C)nn1-c1ccc(F)c(Cl)c1)c1ccc(CNS(C)(=O)=O)c(F)c1` (stereo not drawn) [Example B3, N-[[5-tert-Butyl-2-(3-chloro-4-fluoro-phenyl)-2H-pyrazol-3-yl]-methyl]-2-[3-fluoro-4-(methanesulfonamido-methyl)-phenyl]-propionamide]: the inhibition constant (Ki) turned out to be 3 nM. As for `COc1cc(C(C)C(=O)NCc2cc(C(C)(C)C)nn2-c2cccc(Cl)c2)ccc1CO` (stereo not drawn) [Example A49, N-[[5-tert-Butyl-2-(3-chlorophenyl)-2H-pyrazol-3-yl]-methyl]-2-[4-(hydroxymethyl)-3-methoxy-phenyl]-propionamide], the “(f) Ki (human being) [nM] Cap” value is “AG”. As for “N-(4-Chlorophenyl)-4-[1-[[2-(3-chlorophenyl)-5-(trifluoromethyl)-2H-pyrazol-3-yl]-methyl-carbamoyl]-ethyl]-2-fluoro-benzamide [Example E46]”, the inhibitory constant (Ki) was determined as 2 nM. On the same count and under the same terms, in the case of `CC(C)(C)c1cc(CNC(=O)Nc2ccc(CNS(C)(=O)=O)c(F)c2)n(-c2cccc(C(F)(F)F)c2)n1` [Example B54, 1-[[5-tert-Butyl-2-[3-(trifluoromethyl)phenyl]-2H-pyrazol-3-yl]-methyl]-3-[3-fluoro-4-(methanesulfonamido-methyl)-phenyl]-urea] it was 8 nM; in that of “4-[1-[[5-tert-Butyl-2-(3-chloro phenyl)-2H-pyrazol-3-yl]-methyl-carbamoyl]-ethyl]-N-(3-fluorophenyl)-benzamide [Example E40]”, 4 nM; in that of `CS(=O)(=O)NCc1ccc(NC(=O)NCc2cc(C(F)(F)F)nn2-c2cccc(Cl)c2)cc1` [Example B81, 1-[[2-(3-Chlorophenyl)-5-(trifluoromethyl)-2H-pyrazol-3-yl]-methyl]-3-[4-(methanesulfonamido-methyl)-phenyl]-urea], 33 nM. Regarding `CCC(=O)c1ccc(C(C)C(=O)NCc2cc(C(F)(F)F)nn2-c2cccc(OC)c2)cc1F` (stereo not drawn) [Example E2, 2-(3-Fluoro-4-propanoyl-phenyl)-N-[[2-(3-methoxyphenyl)-5-(trifluoromethyl)-2H-pyrazol-3-yl]-methyl]-propionamide], the inhibitory constant (Ki) is 35 nM. Turning to `CC(C)(C)c1cc(CNC(=O)Nc2ccc(CNS(C)(=O)=O)c(F)c2)n(-c2ccc(F)cc2)n1` [Example B53, 1-[[5-tert-Butyl-2-(4-fluorophenyl)-2H-pyrazol-3-yl]-methyl]-3-[3-fluoro-4-(methanesulfonamido-methyl)-phenyl]-urea], the inhibitory constant (Ki) came out at 33 nM.

On to “4-[[[5-tert-Butyl-2-(3-chlorophenyl)-2H-pyrazol-3-yl]-methyl-carbamoyl]-methyl]-N-[4-(trifluoromethyl)-phenyl]-benzamide [Example E50]”, for which the Ki was 12 nM.

For the compound `NS(=O)(=O)NCc1ccc(NC(=O)NCc2cc(C(F)(F)F)nn2-c2ccc(F)c(Cl)c2)cc1` [Example B78, 1-[[2-(3-Chloro-4-fluoro-phenyl)-5-(trifluoromethyl)-2H-pyrazol-3-yl]-methyl]-3-[4-[(sulfamoylamino)-methyl]-phenyl]-urea], the Ki was determined as 21 nM. Consider `CC(C)c1cccc(-n2nc(C(F)(F)F)cc2CNC(=O)Nc2ccc(CCS(C)(=O)=O)c(F)c2)c1` [Example D33, 1-[3-Fluoro-4-(2-methylsulfonyl-ethyl)-phenyl]-3-[[2-(3-isopropyl-phenyl)-5-(trifluoromethyl)-2H-pyrazol-3-yl]-methyl]-urea], for which the Ki turned out to be 4 nM.

Values taken from US9624209B2, “Substituted phenylureas and phenylamides as vanilloid receptor ligands” (Gruenenthal GmbH, priority 2009, dated 2017).
